{"source": "patent US20230277452A1", "about": "“COMPOSITIONS, DEVICES AND METHODS FOR TREATING NASAL, OTIC AND OTHER TISSUE INFECTION AND/OR INFLAMMATION” (priority 2020, published 2023)", "key": {"[1]": {"system": "Streptococci, Staphylococci, Gardnerella vaginalis, and Corynebacteria", "details": "cited from earlier work"}, "Pseudomonas aeruginosa": {"system": "Pseudomonas aeruginosa", "details": "cited from earlier work"}, "[2]": {"details": "cited from earlier work"}, "[3]": {"experiment": "Recovery of force-degraded fluticasone propionate spiked into placebo and of active cream, HPLC", "format": "physicochemical", "details": "Spiked into placebo"}, "[4]": {"experiment": "Forced degradation of fluticasone propionate, percent recovery by HPLC", "format": "physicochemical", "description": "A similar analysis was performed of the 0.005% fluticasone propionate cream (lot #2021-07-01)."}, "[5]": {"details": "humans with psoriasis, topical betamethasone dipropionate 0.05% spray or lotion BID for 15 days; majority of subjects not measurable; cited from earlier work"}}, "data": [{"compound": "Clc1ccccc1C(c1ccccc1)(c1ccccc1)n1ccnc1", "note": "[clotrimazole]", "values": [{"measurement": "antibacterial activity", "setting": "[1]", "value": "antibacterial activity"}, {"measurement": "effect on Pseudomonas aeruginosa", "setting": "Pseudomonas aeruginosa", "value": "reduction"}]}, {"compound": "C[C@]12CCC(=O)C=C1CC[C@@H]1[C@@H]2[C@@H](O)C[C@@]2(C)[C@H]1CC[C@]2(O)C(=O)CO", "note": "[hydrocortisone]", "values": [{"measurement": "Biological Half Life", "setting": "[2]", "value": "8-12 Hours"}]}, {"compound": "CCC(=O)O[C@]1(C(=O)SCF)[C@H](C)C[C@H]2[C@@H]3C[C@H](F)C4=CC(=O)C=C[C@]4(C)[C@@]3(F)[C@@H](O)C[C@@]21C", "note": "[fluticasone propionate]", "values": [{"measurement": "Peak Area FP", "setting": "[3]; Acid", "value": 2.377}, {"measurement": "Peak Area RRT = 0.32", "setting": "[3]; Acid", "value": 0.033}, {"measurement": "Peak Area RRT = 0.33", "setting": "[3]; Acid", "value": "no peak"}, {"measurement": "Peak Area RRT = 1.17", "setting": "[3]; Acid", "value": 0.221}, {"measurement": "Total MFM-Related Area", "setting": "[3]; Acid", "value": 2.631}, {"measurement": "Peak Area FP", "setting": "[3]; Base", "value": 2.395}, {"measurement": "Peak Area RRT = 0.32", "setting": "[3]; Base", "value": 0.032}, {"measurement": "Peak Area RRT = 0.33", "setting": "[3]; Base", "value": "no peak"}, {"measurement": "Peak Area RRT = 1.17", "setting": "[3]; Base", "value": 0.166}, {"measurement": "Total MFM-Related Area", "setting": "[3]; Base", "value": 2.593}, {"measurement": "Peak Area FP", "setting": "[3]; Control", "value": 2.607}, {"measurement": "Peak Area RRT = 0.32", "setting": "[3]; Control", "value": "no peak"}, {"measurement": "Peak Area RRT = 0.33", "setting": "[3]; Control", "value": 0.012}, {"measurement": "Peak Area RRT = 1.17", "setting": "[3]; Control", "value": 0.046}, {"measurement": "Total MFM-Related Area", "setting": "[3]; Control", "value": 2.665}, {"measurement": "Peak Area FP", "setting": "[3]; Heat", "value": 2.924}, {"measurement": "Peak Area RRT = 0.32", "setting": "[3]; Heat", "value": "no peak"}, {"measurement": "Peak Area RRT = 0.33", "setting": "[3]; Heat", "value": "no peak"}, {"measurement": "Peak Area RRT = 1.17", "setting": "[3]; Heat", "value": 0.183}, {"measurement": "Total MFM-Related Area", "setting": "[3]; Heat", "value": 3.107}, {"measurement": "Peak Area FP", "setting": "[3]; Light", "value": 2.599}, {"measurement": "Peak Area RRT = 0.33", "setting": "[3]; Light", "value": "no peak"}, {"measurement": "Peak Area RRT = 1.17", "setting": "[3]; Light", "value": 0.159}, {"measurement": "Total MFM-Related Area", "setting": "[3]; Light", "value": 2.791}, {"measurement": "Peak Area FP", "setting": "[3]; Peroxide", "value": 2.424}, {"measurement": "Peak Area RRT = 0.32", "setting": "[3]; Peroxide", "value": "no peak"}, {"measurement": "Peak Area RRT = 0.33", "setting": "[3]; Peroxide", "value": "no peak"}, {"measurement": "Peak Area RRT = 1.17", "setting": "[3]; Peroxide", "value": "no peak"}, {"measurement": "Total MFM-Related Area", "setting": "[3]; Peroxide", "value": 2.424}, {"measurement": "Actual Amount", "setting": "[4]; Acid (0.1N HCl, 1 hour)", "value": 12.1791, "unit": "µg/mL"}, {"measurement": "Actual Amount", "setting": "[4]; Base (0.1N NaOH, 1 hour)", "value": 11.7484, "unit": "µg/mL"}, {"measurement": "Actual Amount", "setting": "[4]; Control", "value": 12.5695, "unit": "µg/mL"}, {"measurement": "Actual Amount", "setting": "[4]; Heat (60° C., 3 days)", "value": 12.0739, "unit": "µg/mL"}, {"measurement": "Actual Amount", "setting": "[4]; Light (white light, 3 days)", "value": 11.6609, "unit": "µg/mL"}, {"measurement": "Actual Amount", "setting": "[4]; Peroxide (3% H2O2, 1 hour)", "value": 16.4961, "unit": "µg/mL"}]}, {"compound": "CCC(=O)OCC(=O)[C@@]1(OC(=O)CC)[C@@H](C)C[C@H]2[C@@H]3CCC4=CC(=O)C=C[C@]4(C)[C@@]3(F)[C@@H](O)C[C@@]21C", "note": "[Betamethasone dipropionate, 9-Fluoro-11β,17,21-trihydroxy-16β-methylpregna-1,4-diene-3,20-dione 17,21-dipropionate]", "values": [{"measurement": "plasma concentration", "setting": "[5]", "value": "< 5", "unit": "pg/mL"}, {"measurement": "Biological Half Life", "setting": "[2]", "value": "36-54 Hours"}]}, {"compound": "C[C@]12C=CC(=O)C=C1CC[C@H]1[C@@H]3C[C@@H](O)[C@](O)(C(=O)CO)[C@@]3(C)C[C@H](O)[C@@]12F", "note": "[triamcinolone]", "values": [{"measurement": "Biological Half Life", "setting": "[2]", "value": "18-36 Hours"}]}, {"compound": "C[C@]12C=CC(=O)C=C1CC[C@@H]1[C@@H]2[C@@H](O)C[C@@]2(C)[C@H]1CC[C@]2(O)C(=O)CO", "note": "[prednisolone]", "values": [{"measurement": "Biological Half Life", "setting": "[2]", "value": "18-36 Hours"}]}, {"compound": "C[C@H]1C[C@@H]2[C@H]([C@@H](O)C[C@@]3(C)[C@H]2CC[C@]3(O)C(=O)CO)[C@@]2(C)C=CC(=O)C=C12", "note": "[Methyl-prednisolone, methylprednisolone]", "values": [{"measurement": "Biological Half Life", "setting": "[2]", "value": "18-36 Hours"}]}]}
